Test results reported in the supplement of paper PMC10307832.

Columns and labels:
Assay in all cases: relative viability (nuclei count vs DMSO), 5 days (fraction); higher = more cells survive
Palbociclib + OSI-027 = compound: CC(=O)c1c(C)c2cnc(Nc3ccc(N4CCNCC4)cn3)nc2n(C2CCCC2)c1=O [Palbociclib] + COc1cccc2cc(-c3nc([C@H]4CC[C@H](C(=O)O)CC4)n4ncnc(N)c34)[nH]c12 [OSI-027] (partner 0.5 µM)
In short: (§1)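 Dosing by pin tool came one day after lung cancer cell lines were seeded in 1536-well plates, using either one drug or a fixed anchor-drug dose plus five library-drug doses (not always all listed) in √10 steps. After 5 days, nuclei were counted on 4× images. Relative viability is treated-well nuclei count divided by vehicle-well nuclei count, and values are medians of duplicate plates.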

Palbociclib + Alpelisib = compound: CC(=O)c1c(C)c2cnc(Nc3ccc(N4CCNCC4)cn3)nc2n(C2CCCC2)c1=O [Palbociclib] + Cc1nc(NC(=O)N2CCC[C@H]2C(N)=O)sc1-c1ccnc(C(C)(C)C(F)(F)F)c1 [Alpelisib] (partner 2 µM)
In short: as §1

Palbociclib + Foretinib = compound: CC(=O)c1c(C)c2cnc(Nc3ccc(N4CCNCC4)cn3)nc2n(C2CCCC2)c1=O [Palbociclib] + COc1cc2c(Oc3ccc(NC(=O)C4(C(=O)Nc5ccc(F)cc5)CC4)cc3F)ccnc2cc1OCCCN1CCOCC1 [Foretinib] (partner 0.25 µM)
In short: as §1

Palbociclib + Linsitinib = compound: CC(=O)c1c(C)c2cnc(Nc3ccc(N4CCNCC4)cn3)nc2n(C2CCCC2)c1=O [Palbociclib] + C[C@]1(O)C[C@@H](c2nc(-c3ccc4ccc(-c5ccccc5)nc4c3)c3c(N)nccn32)C1 [Linsitinib] (partner 1 µM)
In short: as §1

Cell Line | relative viability (Palbociclib + OSI-027; first compound 0.01 µM) | relative viability (Palbociclib + OSI-027; first compound 0.1 µM) | relative viability (Palbociclib + OSI-027; first compound 0.3162 µM) | relative viability (Palbociclib + OSI-027; first compound 1 µM) | relative viability (Palbociclib + Alpelisib; first compound 0.01 µM) | relative viability (Palbociclib + Alpelisib; first compound 0.03162 µM) | relative viability (Palbociclib + Alpelisib; first compound 0.1 µM) | relative viability (Palbociclib + Alpelisib; first compound 0.3162 µM) | relative viability (Palbociclib + Alpelisib; first compound 1 µM) | relative viability (Palbociclib + Foretinib; first compound 0.01 µM) | relative viability (Palbociclib + Foretinib; first compound 0.1 µM) | relative viability (Palbociclib + Foretinib; first compound 0.3162 µM) | relative viability (Palbociclib + Foretinib; first compound 1 µM) | relative viability (Palbociclib + Linsitinib; first compound 0.01 µM) | relative viability (Palbociclib + Linsitinib; first compound 0.03162 µM) | relative viability (Palbociclib + Linsitinib; first compound 0.1 µM) | relative viability (Palbociclib + Linsitinib; first compound 0.3162 µM) | relative viability (Palbociclib + Linsitinib; first compound 1 µM) | relative viability (Palbociclib + OSI-027; first compound 0.03162 µM) | relative viability (Palbociclib + Foretinib; first compound 0.03162 µM)
NCI-H596 | 0.681 | 0.761 | 0.649 | 0.809 | 0.555 | 0.462 | 0.498 | 0.477 | 0.525 | 0.996 | 0.836 | 0.821 | 0.953 | 1.12 | 0.914 | 0.95 | 1.02 | 1.03 | – | –
LXF-289 | 0.815 | 0.697 | 0.734 | 0.561 | 0.99 | 0.988 | 1.01 | 0.923 | 0.767 | 0.977 | 0.955 | 0.896 | 0.828 | 0.914 | 0.959 | 0.99 | 0.88 | 0.734 | 0.411 | 0.926
NCI-H1975 | 0.809 | 0.665 | 0.685 | 0.518 | 0.634 | 0.549 | 0.543 | 0.469 | 0.353 | 0.932 | 0.899 | 0.828 | 0.81 | 0.956 | 0.864 | 0.886 | 0.766 | 0.716 | 0.673 | 0.853
NCI-H1355 | 0.45 | 0.33 | 0.282 | 0.24 | 0.823 | – | 0.797 | 0.779 | 0.501 | 1.03 | 0.902 | 0.85 | 0.715 | 0.807 | – | 0.754 | 0.687 | 0.549 | 0.359 | 0.894
NCI-H1993 | 0.533 | 0.513 | 0.524 | 0.509 | 0.679 | 0.635 | 0.597 | 0.614 | 0.631 | 0.815 | 0.671 | 0.627 | 0.52 | 0.706 | 0.722 | 0.648 | 0.693 | 0.676 | 0.505 | 0.633
LCLC-103H | 0.432 | 0.406 | 0.358 | 0.302 | 0.756 | 1.03 | 0.821 | 0.796 | 0.688 | 0.782 | 0.8 | 0.522 | 0.481 | 1.04 | 1.15 | 0.918 | 1 | 0.826 | 0.368 | 0.619
NCI-H2228 | 0.529 | 0.389 | 0.492 | 0.48 | 0.73 | 0.566 | 0.609 | 0.59 | 0.589 | 0.773 | 0.867 | 0.787 | 0.781 | 0.51 | 0.573 | 0.674 | 0.598 | 0.83 | 0.373 | 0.782
NCI-H441 | 0.56 | 0.407 | 0.405 | 0.213 | – | 0.635 | 0.677 | 0.426 | 0.418 | 0.75 | 0.571 | 0.701 | 0.373 | 0.652 | 0.383 | 0.483 | 0.487 | 0.275 | 0.394 | 0.965
NCI-H650 | 0.53 | 0.393 | 0.376 | 0.331 | 1.24 | – | 0.79 | 0.775 | 0.624 | 1.05 | 0.839 | 0.824 | 0.639 | 0.866 | – | 0.646 | 0.635 | 0.436 | 0.309 | 0.862
SK-MES-1 | 0.528 | 0.345 | 0.314 | 0.186 | 0.841 | 0.815 | 0.507 | 0.56 | 0.356 | 1.09 | 0.781 | 0.687 | 0.502 | 1.01 | 1 | 0.791 | 0.772 | 0.609 | 0.364 | 0.834
BEN | 0.298 | 0.255 | 0.252 | 0.286 | 1.04 | 0.847 | 0.634 | 0.834 | 0.499 | 0.729 | 0.607 | 0.556 | 0.376 | 1.14 | 0.759 | 0.618 | 0.747 | 0.497 | 0.274 | 0.422
NCI-H1915 | 0.628 | 0.511 | 0.513 | 0.407 | 1.05 | 1.01 | 0.982 | 0.959 | 0.896 | 1.04 | 1.06 | 0.95 | 0.905 | 1.11 | 1.04 | 1.07 | 1.01 | 0.947 | 0.426 | 0.968
NCI-H1395 | 0.64 | 0.536 | 0.54 | 0.415 | 1.05 | 0.835 | 0.79 | 0.875 | 0.686 | 0.867 | 0.846 | 0.828 | 0.713 | 1.35 | 0.968 | 0.737 | 0.887 | 0.726 | 0.55 | 0.876
NCI-H520 | 0.21 | 0.203 | 0.236 | 0.212 | 0.855 | 0.749 | 0.503 | 0.552 | 0.431 | 0.837 | 0.522 | 0.551 | 0.373 | 1.06 | 0.721 | 0.661 | 0.67 | 0.392 | 0.228 | 0.563
COR-L23 | 0.763 | 0.491 | 0.521 | 0.39 | 0.671 | 0.535 | 0.516 | 0.37 | 0.311 | 0.95 | 0.911 | 0.729 | 0.58 | 0.9 | 0.844 | 0.637 | 0.552 | 0.344 | 0.6 | 0.745
NCI-H2126 | 0.694 | 0.443 | 0.441 | 0.378 | 0.793 | 0.748 | 0.679 | 0.591 | 0.414 | 1.28 | 0.904 | 0.78 | 0.603 | 0.736 | 0.706 | 0.693 | 0.598 | 0.428 | 0.53 | 0.93
NCI-H1651 | 0.663 | 0.706 | 0.663 | 0.334 | 1.03 | 0.823 | 0.875 | 0.883 | 0.624 | 0.882 | 0.779 | 0.747 | 0.613 | 0.972 | 0.913 | 1.01 | 0.933 | 0.698 | 0.639 | 0.819
NCI-H727 | 0.468 | 0.367 | 0.494 | 0.438 | 0.579 | 0.425 | 0.348 | 0.335 | 0.326 | 0.879 | 0.636 | 0.596 | 0.5 | 0.226 | 0.285 | 0.283 | 0.289 | 0.282 | 0.477 | 0.727
NCI-H460 | 0.708 | 0.366 | 0.376 | 0.159 | 0.476 | 0.413 | 0.275 | 0.217 | 0.0996 | 1.01 | 0.886 | 0.8 | 0.536 | 0.903 | 0.529 | 0.483 | 0.288 | 0.117 | 0.531 | 0.969
NCI-H3122 | 0.82 | 0.346 | 0.172 | 0.169 | 0.76 | 0.667 | 0.688 | 0.46 | 0.353 | 0.854 | 0.892 | 0.7 | 0.553 | 0.925 | 1.02 | 0.943 | 0.809 | 0.63 | 0.602 | 0.936
CAL-12T | 0.766 | 0.441 | 0.446 | 0.316 | 1.11 | 1.05 | 0.84 | 0.652 | 0.603 | 1.01 | 0.901 | 0.791 | 0.674 | 0.9 | 0.699 | 0.768 | 0.679 | 0.56 | 0.546 | 0.898
NCI-H23 | 0.576 | 0.502 | 0.463 | 0.408 | 0.705 | – | 0.585 | 0.588 | 0.432 | 0.954 | 1.11 | 0.962 | 0.69 | 0.794 | – | 0.509 | 0.46 | 0.398 | – | –
A-427 | 0.467 | 0.282 | 0.33 | 0.308 | 1.08 | 0.951 | 0.929 | 0.893 | 0.816 | 0.944 | 0.993 | 0.729 | 0.607 | 1.15 | 1.08 | 1.01 | 0.942 | 0.806 | 0.271 | 1.01
LOU-NH91 | 0.706 | 0.46 | 0.505 | 0.44 | 0.753 | 0.609 | 0.545 | 0.576 | 0.55 | 0.957 | 0.678 | 0.646 | 0.533 | 1.02 | 0.79 | 0.668 | 0.6 | 0.605 | 0.587 | 0.86
NCI-H2023 | 0.358 | 0.298 | 0.265 | 0.154 | 0.663 | 0.589 | 0.427 | 0.475 | 0.247 | 0.929 | 0.556 | 0.474 | 0.322 | 0.658 | 0.597 | 0.57 | 0.472 | 0.316 | 0.335 | 0.523
